The text below walks through data of US9174932B2, “CaSR agonists” (AJINOMOTO CO., INC., priority 2008, dated 2015).

The target in this assay is T1, human CaSR (Homo sapiens, UniProt P41180, E1011Q).
T1 construct: expressed in transfected cells; host or cells: 293E cells (HEK293 expressing EBNA1, ATCC CRL-10852), transient transfection of hCaSR/pcDNA3.1
T1 sequence (P41180 20-1078 E1011Q): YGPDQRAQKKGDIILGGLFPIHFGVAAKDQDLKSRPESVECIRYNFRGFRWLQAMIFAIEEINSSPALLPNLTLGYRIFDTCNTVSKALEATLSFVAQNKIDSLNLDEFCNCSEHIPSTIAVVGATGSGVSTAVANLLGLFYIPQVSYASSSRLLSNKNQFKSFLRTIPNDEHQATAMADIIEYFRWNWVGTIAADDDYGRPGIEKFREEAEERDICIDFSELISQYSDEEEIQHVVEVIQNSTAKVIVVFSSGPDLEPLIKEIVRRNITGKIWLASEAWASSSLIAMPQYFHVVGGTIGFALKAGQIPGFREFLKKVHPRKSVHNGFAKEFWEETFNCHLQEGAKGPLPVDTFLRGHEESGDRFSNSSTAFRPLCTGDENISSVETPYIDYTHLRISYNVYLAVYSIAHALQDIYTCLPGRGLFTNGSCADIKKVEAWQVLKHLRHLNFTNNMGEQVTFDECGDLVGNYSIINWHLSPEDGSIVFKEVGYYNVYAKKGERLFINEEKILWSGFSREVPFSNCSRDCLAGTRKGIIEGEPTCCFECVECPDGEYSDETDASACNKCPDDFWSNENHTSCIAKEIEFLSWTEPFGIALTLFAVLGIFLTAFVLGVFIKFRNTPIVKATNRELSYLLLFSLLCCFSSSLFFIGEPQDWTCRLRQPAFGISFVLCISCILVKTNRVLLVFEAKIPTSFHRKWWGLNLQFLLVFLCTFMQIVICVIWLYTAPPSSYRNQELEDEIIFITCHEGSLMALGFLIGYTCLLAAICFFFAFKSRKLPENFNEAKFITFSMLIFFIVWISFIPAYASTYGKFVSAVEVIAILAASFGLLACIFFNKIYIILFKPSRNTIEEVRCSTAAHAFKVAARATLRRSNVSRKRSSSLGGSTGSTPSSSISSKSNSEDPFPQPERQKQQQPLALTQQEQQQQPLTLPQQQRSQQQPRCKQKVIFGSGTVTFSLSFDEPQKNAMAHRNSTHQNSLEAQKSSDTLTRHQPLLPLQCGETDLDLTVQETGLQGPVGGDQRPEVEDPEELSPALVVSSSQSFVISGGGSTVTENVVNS
Nature of the assay: Evaluation of CaSR agonistic activity (293E cells transfected with hCaSR, Ca2+ fluorescent indicator, FLIPR). It is filed as cell-based. To be noted: 293E cells expressing human CaSR; concentration giving activation rate 50%. The protocol:
293E cells (HEK293 cell expressing EBNA1, ATCC No. CRL-10852) were cultured in DMEM containing 10% fetal bovine serum (Dulbecco's modified Eagle medium containing […] Glucose, by NACALAI TESQUE, INC.), in the presence of 250 μg/mL of G418. The cells were spread on a petri dish of 10 cm diameter in 1.8×10^6 cells/15 mL. After leaving them in the CO2 incubator (5% CO2, 37° C.) for 24 hours, plasmid expressing human CaSR: hCaSR/pcDNA3.1 was transfected with a transfection reagent: Mirus TransIT 293 (by Takara Bio Inc.). After leaving it in the CO2 incubator for 24 hours, the cells were collected by DMEM containing 10% fetal bovine serum and seeded on poly-D-lysine coat 384 well plate (by Falcon) in 15,000 cells/well. After leaving them in the CO2 incubator for 24 hours, the medium was removed. Then, 50 μL/well of Ca^2+ fluorescent indicator: Calcium 4 Assay Kit (by Molecular Devices) that was dissolved in an assay buffer (146 mM NaCl, 5 mM KCl, 1 mM MgSO4, 1 mg/mL Glucose, 20 mM HEPES (pH 7.2), 1.5 mM CaCl2) was added thereto, and left at 37° C. for 1 hour and at room temperature for 30 minutes to absorb the fluorescent indicator. The 384 well plate was transferred to FLIPR (by Molecular Devices). Then, 12.5 μL/well of a compound that was dissolved in a 0.1% BSA containing assay buffer was added thereto, and change in fluorescence intensity was measured for 3 minutes. Meanwhile, Compound No. 20 was purchased from Bachem.
The difference between the maximum value and the minimum value (RFU(Max−Min)) of the fluorescence intensity before and after adding a compound was automatically calculated by FLIPR. RFU(Max−Min) when adding a compound in maximum concentration was defined as 100%; and RFU(Max−Min) when adding DMSO instead of the compound in the same concentration as that of the compound was defined as 0%.
Broadly, the EC50 is the concentration giving half of the maximal effect. A high value points to a need for much substance. In the case of `COc1ccc(NC(=O)CC[C@H](N)C(=O)O)cc1S(=O)(=O)O` [Compound No. 2, N^5-(4-methoxy-3-sulfophenyl)-L-glutamine], a half-maximal effect (EC50) was put at 2300 nM. In the case of `COc1ccc(S(=O)(=O)O)cc1NC(=O)CC[C@H](N)C(=O)O` [Compound No. 3, N^5-(2-methoxy-5-sulfophenyl)-L-glutamine] it was 560 nM; in that of `Cc1cc(C)c(S(=O)(=O)O)cc1NC(=O)CC[C@H](N)C(=O)O` [Compound No. 4, N^5-(2,4-dimethyl-5-sulfophenyl)-L-glutamine], 59 nM. In the case of `Cc1ccc(NC(=O)CC[C@H](N)C(=O)O)cc1S(=O)(=O)O` [Compound No. 5, N^5-(4-methyl-3-sulfophenyl)-L-glutamine] it was 130 nM; in that of `N[C@@H](CCC(=O)Nc1cc(S(=O)(=O)O)cc([N+](=O)[O-])c1O)C(=O)O` [Compound No. 6, N^5-(2-hydroxy-3-nitro-5-sulfophenyl)-L-glutamine], 2700 nM; in that of `N[C@@H](CCC(=O)Nc1cc(S(=O)(=O)O)ccc1O)C(=O)O` [Compound No. 8, N^5-(2-hydroxy-5-sulfophenyl)-L-glutamine], 100 nM. Turning to `N[C@@H](CCC(=O)Nc1ccc(Cl)c(S(=O)(=O)O)c1)C(=O)O` [Compound No. 9, N^5-(4-chloro-3-sulfophenyl)-L-glutamine], a half-maximal effect (EC50) was put at 270 nM.

`N[C@@H](CCC(=O)Nc1cccc(S(=O)(=O)O)c1O)C(=O)O` [Compound No. 10, N^5-(2-hydroxy-3-sulfophenyl)-L-glutamine]: a half-maximal response (EC50) required 17 nM. As for `N[C@@H](CCC(=O)Nc1ccc(O)c(S(=O)(=O)O)c1)C(=O)O` [Compound No. 11, N^5-(4-hydroxy-3-sulfophenyl)-L-glutamine], the figure is 86 nM; as for `CN(C(=O)CC[C@H](N)C(=O)O)c1cccc(S(=O)(=O)O)c1` [Compound No. 12, N^5-methyl-N^5-(3-sulfophenyl)-L-glutamine], 200 nM. As for `N[C@@H](COC(=O)Nc1cccc(S(=O)(=O)O)c1)C(=O)O` [Compound No. 13, O-{[(3-sulfophenyl)amino]carbonyl}-L-serine], the figure is 72 nM; as for `N[C@@H](CCC(=O)Nc1cccc(C(=O)O)c1)C(=O)O` [Compound No. 14, 3-(L-γ-glutamylamino)benzoic acid], 2000 nM. As for `N[C@@H](CCC(=O)Nc1cccc(C(=O)O)c1O)C(=O)O` [Compound No. 15, 3-(L-γ-glutamylamino)-2-hydroxybenzoic acid], the figure is 34 nM; as for `N[C@@H](CCC(=O)Nc1cc(Br)cc(C(=O)O)c1)C(=O)O` [Compound No. 16, 3-bromo-5-(L-γ-glutamylamino)benzoic acid], 48 nM; as for `COP(=O)(O)c1cccc(NC(=O)CC[C@H](N)C(=O)O)c1` [Compound No. 17, N^5-{3-[hydroxyl(methoxy)phosphoryl]phenyl}-L-glutamine], 2000 nM. Regarding `N[C@@H](CCC(=O)Nc1cccc(P(=O)(O)O)c1)C(=O)O` [Compound No. 18, N^5-(3-phosphonophenyl)-L-glutamine], the 50% effective concentration (EC50) worked out at 530 nM. As for `N[C@@H](CCC(=O)Nc1cccc([N+](=O)[O-])c1)C(=O)O` [Compound No. 19, N^5-(3-nitrophenyl)-L-glutamine], the figure is 400 nM; as for `N[C@@H](CCC(=O)Nc1ccccc1)C(=O)O` [Compound No. 20, N-γ-glutamyl-aniline], 940 nM; as for `Cc1c(Cl)cc(NC(=O)CC[C@H](N)C(=O)O)cc1S(=O)(=O)O` [Compound No. 21, N^5-(3-chloro-4-methyl-5-sulfophenyl)-L-glutamine], 5.7 nM. As for `Cc1c(Cl)cc(S(=O)(=O)O)cc1NC(=O)CC[C@H](N)C(=O)O` [Compound No. 22, N^5-(3-chloro-2-methyl-5-sulfophenyl)-L-glutamine], the figure is 1.4 nM; as for `N[C@@H](CCC(=O)Nc1cc([N+](=O)[O-])cc(S(=O)(=O)O)c1O)C(=O)O` [Compound No. 23, N^5-(2-hydroxy-5-nitro-3-sulfophenyl)-L-glutamine], 890 nM. As for `N[C@@H](CCC(=O)Nc1cc(Cl)cc(C(=O)O)c1Cl)C(=O)O` [Compound No. 24, 2,5-dichloro-3-(L-γ-glutamylamino)benzoic acid], the figure is 22 nM; as for `N[C@@H](CCC(=O)Nc1cccc(C(=O)O)c1Cl)C(=O)O` [Compound No. 25, 2-chloro-3-(L-γ-glutamylamino)benzoic acid], 970 nM. The molecule `N[C@@H](CCC(=O)Nc1cc(C(=O)O)ccc1Cl)C(=O)O` [Compound No. 26, 4-chloro-3-(L-γ-glutamylamino)benzoic acid] came in with an EC50 of 160 nM. As for `COc1c(NC(=O)CC[C@H](N)C(=O)O)cccc1C(=O)O` [Compound No. 27, 2-methoxy-3-(L-γ-glutamylamino)benzoic acid], the figure is 150 nM. As for `N[C@@H](CCC(=O)Nc1ccc(O)c(C(=O)O)c1)C(=O)O` [Compound No. 28, 6-hydroxy-3-(L-γ-glutamylamino)benzoic acid], the figure is 330 nM. As for `Cc1ccc(C(=O)O)cc1NC(=O)CC[C@H](N)C(=O)O` [Compound No. 29, 4-methyl-3-(L-γ-glutamylamino)benzoic acid], the figure is 530 nM; as for `N[C@@H](CCC(=O)Nc1cc(O)cc(C(=O)O)c1)C(=O)O` [Compound No. 30, 5-hydroxy-3-(L-γ-glutamylamino)benzoic acid], 2900 nM. With `Cc1c(NC(=O)CC[C@H](N)C(=O)O)cccc1C(=O)O` [Compound No. 31, 3-(L-γ-glutamylamino)-2-methyl-benzoic acid], a half-maximal effect (EC50) was put at 3700 nM. The EC50 values of the last two molecules are within 1.5-fold of each other. As for `N[C@@H](CCC(=O)Nc1cc(Cl)cc(C(=O)O)c1)C(=O)O` [Compound No. 32, 5-chloro-3-(L-γ-glutamylamino)benzoic acid], the figure is 8.8 nM. As for `Cc1c(Cl)cc(NC(=O)OC[C@H](N)C(=O)O)cc1S(=O)(=O)O` [Compound No. 33, O-{[(3-chloro-4-methyll-5-sulfophenyl)amino]carbonyl}-L-serine], the figure is 2.1 nM; as for `N[C@@H](COC(=O)Nc1cc(Cl)cc(S(=O)(=O)O)c1O)C(=O)O` [Compound No. 34, sodium 3-{[(2S)-2-amino-2-carboxyethoxycarbonyl]amino}-5-chloro-2-hydroxybenzenesulfonate], 1.9 nM. In the case of `Cc1c(Cl)cc(S(=O)(=O)O)cc1NC(=O)OC[C@H](N)C(=O)O` [Compound No. 35, O-{[(3-chloro-2-methyl-5-sulfophenyl)amino]carbonyl}-L-serine] it was 3.7 nM; in that of `COc1c(NC(=O)OC[C@H](N)C(=O)O)cc(Cl)cc1S(=O)(=O)O` [Compound No. 36, O-{[(5-chloro-2-methoxy-3-sulfophenyl)amino]carbonyl}-L-serine], 3500 nM; in that of `N[C@@H](CCC(=O)Nc1cc(S(=O)(=O)O)ccc1Cl)C(=O)O` [Compound No. 37, N^5-(2-chloro-5-sulfophenyl)-L-glutamine], 2.9 nM.
